Assay results as given in ChEMBL document CHEMBL1146939, “Design, synthesis, and biological evaluations of novel oxindoles as HIV-1 non-nucleoside reverse transcriptase inhibitors. Part 2” (Bioorg Med Chem Lett, 2006).

Legend:
[1] = tested on: Human immunodeficiency virus 1; test: Antiviral activity against HIV1 in HEK293T cells; type: functional, organism-based; details: Human immunodeficiency virus 1, HEK-293T
HEK293 = test: Cytotoxicity against HEK293T cells; type: functional; details: Homo sapiens
[2] = tested on: Human immunodeficiency virus 1; test: Antiviral activity against HIV1 Y181C mutant; type: functional, organism-based
[3] = tested on: Human immunodeficiency virus 1; test: Antiviral activity against HIV1 V106A mutant; type: functional, organism-based
[4] = tested on: Human immunodeficiency virus 1; test: Antiviral activity against HIV1 F227C mutant; type: functional, organism-based
[5] = tested on: Human immunodeficiency virus 1; test: Antiviral activity against HIV1 Y188L mutant; type: functional, organism-based
[6] = tested on: Human immunodeficiency virus 1; test: Antiviral activity against HIV1 I135T mutant; type: functional, organism-based
[7] = tested on: Human immunodeficiency virus 1; test: Antiviral activity against HIV1 F227L mutant; type: functional, organism-based
[8] = tested on: Human immunodeficiency virus 1; test: Antiviral activity against HIV1 L100I mutant; type: functional, organism-based
[9] = tested on: Human immunodeficiency virus 1; test: Antiviral activity against HIV1 I135V mutant; type: functional, organism-based
[10] = tested on: Human immunodeficiency virus 1; test: Antiviral activity against HIV1 K103N mutant; type: functional, organism-based
[11] = tested on: Human immunodeficiency virus 1; test: Antiviral activity against HIV1 E138K mutant; type: functional, organism-based
[12] = tested on: Human immunodeficiency virus 1; test: Antiviral activity against HIV1 V179E mutant; type: functional, organism-based

EC50 [1] [nM]	Compound	CC50 (HEK293) [nM]	other results
557	Cn1cccc1-c1cccc([C@H]2C[C@]23C(=O)Nc2ccc(Cl)cc23)n1	> 10000	–
4970	O=C1Nc2ccc(Cl)cc2[C@@]12C[C@@H]2c1cc2ccccc2s1	> 10000	–
23	O=C1Nc2ccc(Cl)cc2[C@@]12C[C@@H]2c1ccc(Br)cn1	> 10000	–
1810	CC(=O)/C=C/c1cccc([C@H]2C[C@]23C(=O)Nc2ccc(Cl)cc23)n1	6130	–
844	Cc1ccsc1[C@H]1C[C@]12C(=O)Nc1ccc(Cl)cc12	> 10000	–
> 10000	O=C1Nc2ccc(Cl)cc2[C@@]12C[C@@H]2c1ccc(F)cc1	> 10000	–
463	COc1c(C)cnc([C@H]2C[C@]23C(=O)Nc2ccc(Cl)cc23)c1C	> 10000	–
28	CC1(C)[C@H](c2cccc(Br)n2)[C@@]12C(=O)Nc1ccc(Cl)cc12	5240	–
504	O=C1Nc2ccc(Cl)cc2[C@@]12C[C@@H]2c1cccc(-c2ccccn2)n1	> 10000	–
> 10000	Cn1ccnc1[C@H]1C[C@]12C(=O)Nc1ccc(Cl)cc12	> 10000	–
180	Cc1cnc([C@H]2C[C@]23C(=O)Nc2ccc(Cl)cc23)c(C)c1[N+](=O)[O-]	> 10000	–
> 10000	O=C1Nc2ccc(Cl)cc2[C@@]12C[C@@H]2c1cccnc1	> 10000	–
> 10000	O=C1Nc2ccc(Cl)cc2[C@@]12C[C@@H]2c1ccc2ccccc2c1	> 10000	–
> 10000	Cn1cccc1[C@H]1C[C@]12C(=O)Nc1ccc(Cl)cc12	> 10000	–
86	O=C1Nc2ccc(Cl)cc2[C@@]12C[C@@H]2c1cc2ccccc2o1	> 10000	–
39	Cc1cccc([C@H]2C[C@]23C(=O)Nc2ccc(Cl)cc23)n1	> 10000	–
> 10000	O=C1Nc2ccc(Cl)cc2[C@@]12C[C@@H]2c1nccs1	> 10000	–
167	COC(=O)c1cc(OC)cc(OC)c1[C@H]1C[C@]12C(=O)Nc1ccc(Cl)cc12	> 10000	–
245	O=C1Nc2ccc(Cl)cc2[C@@]12C[C@@H]2c1ccc(Br)o1	> 10000	–
> 10000	COc1ccc([C@H]2C[C@]23C(=O)Nc2ccc(Cl)cc23)cc1	> 10000	–
160	CCc1ccc([C@H]2C[C@]23C(=O)Nc2ccc(Cl)cc23)s1	> 10000	–
> 10000	Cn1nnnc1[C@H]1C[C@]12C(=O)Nc1ccc(Cl)cc12	> 10000	–
–	O=C1Nc2ccc(Cl)cc2[C@@](C#CC2CC2)(C(F)(F)F)O1 [EFAVIRENZ]	10000	EC50 [2]: 1.1 nM; EC50 [4]: 8 nM; EC50 [6]: 1 nM
–	Cc1ccnc2c1NC(=O)c1cccnc1N2C1CC1 [NEVIRAPINE]	> 10000	EC50 [2]: > 10000 nM; EC50 [4]: 733 nM; EC50 [5]: > 10000 nM; EC50 [6]: 207 nM

Compound	EC50 [1] [nM]	CC50 (HEK293) [nM]	other results
Cc1cc([C@H]2C[C@]23C(=O)Nc2ccc(Cl)cc23)oc1C	27	> 10000	EC50 [2]: 3070 nM; EC50 [3]: 630 nM; EC50 [4]: 957 nM; EC50 [5]: > 10000 nM; EC50 [6]: 236 nM; EC50 [7]: 63 nM; EC50 [8]: 260 nM; EC50 [9]: 59 nM; EC50 [10]: > 10000 nM; EC50 [11]: 52 nM; EC50 [12]: 2460 nM
O=C1Nc2ccc(Cl)cc2[C@@]12C[C@@H]2c1cccc(-c2cccs2)n1	16	> 10000	EC50 [2]: 63 nM; EC50 [3]: 147 nM; EC50 [4]: 313 nM; EC50 [5]: 1970 nM; EC50 [6]: 68 nM; EC50 [7]: 365 nM; EC50 [8]: 100 nM; EC50 [9]: 263 nM; EC50 [10]: 2240 nM; EC50 [11]: 38 nM; EC50 [12]: 60 nM
